Measurements reported in patent publication US6949542B2, “Dihydro-benzo[b][1,4]diazepin-2-one derivatives” (Hoffman-La Roche Inc., priority 2002, dated 2005).

Row | melting point | SMILES
1 | 227 to 230 °C | O=C1CC(c2cccc(-c3ncccn3)c2)=Nc2cc(Cl)c(Cl)cc2N1 [Example 340, 7,8-Dichloro-4-(3-pyrimidin-2-yl-phenyl)-1,3-dihydro-benzo[b][1,4]diazepin-2-one]
2 | 210 to 215 °C | COc1ccc(-c2cccc(C3=Nc4ccc(C(F)(F)F)cc4NC(=O)C3)c2)cn1 [Example 50, 4-[3-(6-Methoxy-pyridin-3-yl)-phenyl]-8-trifluoromethyl-1,3-dihydro-benzo[b][1,4]diazepin-2-one]
3 | 244 °C | CCOc1cc2c(cc1C(F)(F)F)NC(=O)CC(c1cccc(-c3ccnc(CC)c3)c1)=N2 [Example 159, 4-[3-(2-Ethyl-pyridin-4-yl)-phenyl]-7-ethoxy-8-trifluoromethyl-1,3-dihydro-benzo[b][1,4]diazepin-2-one]
4 | 236 °C | Cc1cc2c(cc1Cl)N=C(c1cccc(-c3ccncc3)c1)CC(=O)N2 [Example 66, 7-Chloro-8-methyl-4-(3-pyridin-4-yl-phenyl)-1,3-dihydro-benzo[b][1,4]diazepin-2-one]
5 | 203 °C | CCOc1cc2c(cc1C(F)(F)F)NC(=O)CC(c1cccc(-c3ccnc(CC(C)C)c3)c1)=N2 [Example 280, 4-[3-(2-Isobutyl-pyridin-4-yl)-phenyl]-7-ethoxy-8-trifluoromethyl-1,3-dihydro-benzo[b][1,4]diazepin-2-one]
6 | 215 °C | CCOc1cc2c(cc1C(F)(F)F)NC(=O)CC(c1cccc(-c3cc(C)nc(CC)c3)c1)=N2 [Example 250, 7-Ethoxy-4-[3-(2-ethyl-6-methyl-pyridin-4-yl)-phenyl]-8-trifluoromethyl-1,3-dihydro-benzo[b][1,4]diazepin-2-one]
7 | 197 °C | O=C1CC(c2ccnc(-c3cccnc3)c2)=Nc2cc(OCC(F)(F)F)c(C(F)(F)F)cc2N1 [Example 394, 4-[2,3′]Bipyridinyl-4-yl-7-(2,2,2-trifluoro-ethoxy)-8-trifluoromethyl-1,3-dihydro-benzo[b][1,4]diazepin-2-one]
8 | 235 °C | Cc1ccc(-c2cccc(C3=Nc4cc(C)c(C(F)(F)F)cc4NC(=O)C3)c2)cn1 [Example 237, 7-Methyl-4-[3-(6-methyl-pyridin-3-yl)-phenyl]-8-trifluoromethyl-1,3-dihydro-benzo[b][1,4]diazepin-2-one]
9 | 190 °C | O=C1CC(c2cccc(-c3ccnc(CN4CCC4)c3)c2)=Nc2cc(OCC(F)(F)F)c(C(F)(F)F)cc2N1 [Example 381, 4-[3-(2-Azetidin-1-ylmethyl-pyridin-4-yl)-phenyl]-7-(2,2,2-trifluoro-ethoxy)-8-trifluoromethyl-1,3-dihydro-benzo[b][1,4]diazepin-2-one]
10 | 201 to 205 °C | Cc1cc2c(cc1C(F)(F)F)NC(=O)CC(c1cccc(-c3cc(N)ncn3)c1)=N2 [Example 328, 4-[3-(6-Amino-pyrimidin-4-yl)-phenyl]-7-methyl-8-trifluoromethyl-1,3-dihydro-benzo[b][1,4]diazepin-2-one]
11 | 241 to 242 °C | Cc1nccc(-c2cccc(C3=Nc4cc(Cl)c(Cl)cc4NC(=O)C3)c2)n1 [Example 306, 7,8-Dichloro-4-[3-(2-methyl-pyrimidin-4-yl)-phenyl]-1,3-dihydro-benzo[b][1,4]diazepin-2-one]
12 | 208 to 209 °C | O=C1CC(c2cccc(-c3cccnc3)c2)=Nc2ccc(-c3ccccc3F)cc2N1 [Example 29, 8-(2-Fluoro-phenyl)-4-(3-pyridin-3-yl-phenyl)-1,3-dihydro-benzo[b][1,4]diazepin-2-one]
13 | 215 °C | CCOc1cc2c(cc1C(F)(F)F)NC(=O)CC(c1cccc(-c3ccnc(N4CCCC4)c3)c1)=N2 [Example 390, 7-Ethoxy-4-[3-(2-pyrrolidin-1-yl-pyridin-4-yl)-phenyl]-8-trifluoromethyl-1,3-dihydro-benzo[b][1,4]diazepin-2-one]
14 | 209 to 210 °C | CN(C)c1cc2c(cc1C(F)(F)F)NC(=O)CC(c1cccc(-c3ccncn3)c1)=N2 [Example 298, 7-Dimethylamino-4-(3-pyrimidin-4-yl-phenyl)-8-trifluoromethyl-1,3-dihydro-benzo[b][1,4]diazepin-2-one]
15 | 217 °C | Cc1cc(-c2cccc(C3=Nc4cc(F)c(F)cc4NC(=O)C3)c2)ccn1 [Example 115, 7,8-Difluoro-4-[3-(2-methyl-pyridin-4-yl)-phenyl]-1,3-dihydro-benzo[b][1,4]diazepin-2-one]
16 | 224 °C | O=C1CC(c2cccc(-c3ccnc(N4CCCC4)c3)c2)=Nc2ccc(C(F)(F)F)cc2N1 [Example 388, 4-[3-(2-Pyrrolidin-1-yl-pyridin-4-yl)-phenyl]-8-trifluoromethyl-1,3-dihydro-benzo[b][1,4]diazepin-2-one]
17 | 209 °C | CCc1cc(-c2cccc(C3=Nc4cc(OCC(F)(F)F)c(C(F)(F)F)cc4NC(=O)C3)c2)cc(C)n1 [Example 251, 4-[3-(2-Ethyl-6-methyl-pyridin-4-yl)-phenyl]-7-(2,2,2-trifluoro-ethoxy)-8-trifluoromethyl-1,3-dihydro-benzo[b][1,4]diazepin-2-one]
18 | 178 to 180 °C | O=C1CC(c2cccc(-c3ccc(C4CC4)nc3)c2)=Nc2cc(OCC(F)(F)F)ccc2N1 [Example 176, 4-[3-(6-Cyclopropyl-pyridin-3-yl)-phenyl]-7-(2,2,2-trifluoro-ethoxy)-1,3-dihydro-benzo[b][1,4]diazepin-2-one]

Row | melting point | SMILES
19 | 119 °C | Cc1cc(C2CC2)ncc1-c1cccc(C2=Nc3ccc(C(F)(F)F)cc3NC(=O)C2)c1 [Example 344, 4-[3-(6-Cyclopropyl-4-methyl-pyridin-3-yl)-phenyl]-8-trifluoromethyl-1,3-dihydro-benzo[b][1,4]diazepin-2-one]
20 | 210 to 211 °C | O=C1CC(c2cccc(-c3cccnc3)c2)=Nc2ccccc2N1 [Example 34, 4-(3-Pyridin-3-yl-phenyl)-1,3-dihydro-benzo[b][1,4]diazepin-2-one]
21 | 236 to 237 °C | CN(C)c1cc2c(cc1-c1ccccc1F)NC(=O)CC(c1cccc(-c3ccncc3)c1)=N2 [Example 39, 7-Dimethylamino-8-(2-fluoro-phenyl)-4-(3-pyridin-4-yl-phenyl)-1,3-dihydro-benzo[b][1,4]diazepin-2-one]
22 | 218 °C | Cc1cc2c(cc1Cl)N=C(c1cccc(-c3cnccn3)c1)CC(=O)N2 [Example 103, 7-Chloro-8-methyl-4-(3-pyrazin-2-yl-phenyl)-1,3-dihydro-benzo[b][1,4]diazepin-2-one]
23 | 219 °C (dec.) | COc1ccc2c(c1)N=C(c1cccc(-c3cccnc3)c1)CC(=O)N2 [Example 55, 7-Methoxy-4-(3-pyridin-3-yl-phenyl)-1,3-dihydro-benzo[b][1,4]diazepin-2-one]
24 | 226 to 227 °C | O=C1CC(c2cccc(-c3ccccn3)c2)=Nc2ccc(C(F)(F)F)cc2N1 [Example 33, 4-(3-Pyridin-2-yl-phenyl)-8-trifluoromethyl-1,3-dihydro-benzo[b][1,4]diazepin-2-one]
25 | 207 °C | Cc1cc(-c2cccc(C3=Nc4cc(C(F)(F)F)c(Cl)cc4NC(=O)C3)c2)cc(C)n1 [Example 128, 8-Chloro-4-[3-(2,6-dimethyl-pyridin-4-yl)-phenyl]-7-trifluoromethyl-1,3-dihydro benzo[b][1,4]diazepin-2-one]
26 | 235 to 237 °C | CNc1nc(C)cc(-c2cccc(C3=Nc4cc(C)c(Cl)cc4NC(=O)C3)c2)n1 [Example 319, 8-Chloro-7-methyl-4-[3-(6-methyl-2-methylamino-pyrimidin-4-yl)-phenyl]-1,3-dihydro-benzo[b][1,4]diazepin-2-one]
27 | 233 to 236 °C | Cc1nnc(-c2cccc(C3=Nc4cc(N(C)C)c(C(F)(F)F)cc4NC(=O)C3)c2)nc1C [Example 343, 7-Dimethylamino-4-[3-(5,6-dimethyl-[1,2,4]triazin-3-yl)-phenyl]-8-trifluoromethyl-1,3-dihydro-benzo[b][1,4]diazepin-2-one]
28 | 150 °C | O=C1CC(c2cccc(-c3ccnc(CNC4CC4)c3)c2)=Nc2cc(OCC(F)(F)F)c(C(F)(F)F)cc2N1 [Example 379, 4-[3-(2-Cyclopropylaminomethyl-pyridin-4-yl)-phenyl]-7-(2,2,2-trifluoro-ethoxy)-8-trifluoromethyl-1,3-dihydro-benzo[b][1,4]diazepin-2-one]
29 | 207 °C | Cc1cc(-c2cccc(C3=Nc4cc(N(C)C(C)C)c(C(F)(F)F)cc4NC(=O)C3)c2)ccn1 [Example 363, 7-(Isopropyl-methyl-amino)-4-[3-(2-methyl-pyridin-4-yl)-phenyl]-8-trifluoromethyl-1,3-dihydro-benzo[b][1,4]diazepin-2-one]
30 | 174 °C | Cc1ccc(-c2cccc(C3=Nc4cc(N(C)C)c(C(F)(F)F)cc4NC(=O)C3)c2)nn1 [Example 15, 7-Dimethylamino-4-[3-(6-methyl-pyridazin-3-yl)-phenyl]-8-trifluoromethyl-1,3-dihydro-benzo[b][1,4]diazepin-2-one]
31 | 224 °C | COc1ccc(-c2cccc(C3=Nc4cc(N(C)C)c(C(F)(F)F)cc4NC(=O)C3)c2)nn1 [Example 40, 7-Dimethylamino-4-[3-(6-methoxy-pyridazin-3-yl)-phenyl]-8-trifluoromethyl-1,3-dihydro-benzo[b][1,4]diazepin-2-one]
32 | 231 °C | Cc1cc2c(cc1C)NC(=O)CC(c1cccc(-c3ccncc3)c1)=N2 [Example 69, 7,8-Dimethyl-4-(3-pyridin-4-yl-phenyl)-1,3-dihydro-benzo[b][1,4]diazepin-2-one]
33 | 249 °C | CCOc1cc2c(cc1C(F)(F)F)NC(=O)CC(c1ccnc(-c3cccnc3)c1)=N2 [Example 393, 4-[2,3′]Bipyridinyl-4-yl-7-ethoxy-8-trifluoromethyl-1,3-dihydro-benzo[b][1,4]diazepin-2-one]
34 | 230 °C | Cc1ccc(-c2cccc(C3=Nc4ccc(Cl)cc4NC(=O)C3)c2)cn1 [Example 31, 8-Chloro-4-[3-(6-methyl-pyridin-3-yl)-phenyl]-1,3-dihydro-benzo[b][1,4]diazepin-2-one]
35 | 226 to 228 °C | Cc1cc2c(cc1Cl)NC(=O)CC(c1cccc(-c3cc(N(C)C)ncn3)c1)=N2 [Example 333, 8-Chloro-4-[3-(6-dimethylamino-pyrimidin-4-yl)-phenyl]-7-methyl-1,3-dihydro-benzo[b][1,4]diazepin-2-one]
